Measurements from patent US11173124B2, “Oral delivery of GLP-1 peptide analogs” (MEDIMMUNE LIMITED, priority 2017, dated 2021).
One block for each compound: values may come before it. Starred links: 1 amine or outer side, 2 acyl side, 3 side chain; linkers in the order of their positions; H or OH if unused. Non-standard residues stand in square brackets, D forms with d. Residues, ends and D or L forms follow the SMILES beside them. Groups on a side chain read outwards from the residue. *: point of attachment. γGlu = O=C(O)[C@H](CCC(=O)[*:2])N[*:1]; αMeF = C[C@](N)(Cc1ccccc1)C(=O)O; αMeK = C[C@](N)(CCCCN)C(=O)O; Lauroyl = CCCCCCCCCCCC(=O)*; αMeS = C[C@](N)(CO)C(=O)O; AEEA = NCCOCCOCC(=O)O; Aib = CC(C)(N)C(=O)O

Experiments:
GLP-1 receptor = target: T1, GLP-1 receptor (Rattus norvegicus, UniProt P32301); test: cAMP assay, INSle assay as described in WO 2016/198544; format: cell-based; conditions: in vitro potency at the GLP-1 receptor
T1 construct: endogenous in cells; host or cells: INS-1E rat insulinoma cells (printed as 'INSle')
T1 sequence (P32301 22-463): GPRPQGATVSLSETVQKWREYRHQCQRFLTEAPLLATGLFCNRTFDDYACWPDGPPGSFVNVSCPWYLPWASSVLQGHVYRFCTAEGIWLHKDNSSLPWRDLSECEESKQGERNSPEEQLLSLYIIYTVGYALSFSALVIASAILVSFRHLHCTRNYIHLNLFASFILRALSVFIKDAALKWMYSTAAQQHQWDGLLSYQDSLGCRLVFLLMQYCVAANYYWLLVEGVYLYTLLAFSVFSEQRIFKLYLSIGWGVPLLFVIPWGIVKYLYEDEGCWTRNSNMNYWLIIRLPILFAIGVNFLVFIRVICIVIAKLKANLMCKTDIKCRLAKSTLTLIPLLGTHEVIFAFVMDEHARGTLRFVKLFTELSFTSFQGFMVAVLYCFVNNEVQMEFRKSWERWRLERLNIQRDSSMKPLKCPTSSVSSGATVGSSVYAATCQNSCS
Source text: The biological activity of a GLP-1 peptide analog can be evaluated, for example, by assessing the ability of the peptide to activate a receptor (e.g., a GLP-1 receptor). Peptide activation of such receptors results in downstream accumulation of cAMP second messenger which can be measured in a functional activity assay.

[1] = Third rat ID infusion study, stabilized peptides vs semaglutide (Example 6); conditions: in vivo
Protocol: The third rat ID infusion study was performed to compare bioavailability of stabilized peptides MEDI7219 (SEQ ID NO:2) and SEQ ID NO:6 with that of semaglutide, H-His-Aib-[…]AEEAc-AEEAc-γ-Glu-17-carboxyheptadecanoyl)-[…]OH (SEQ ID NO:11), (Novo Nordisk), an un-stabilized GLP-1 peptide analog, that only has Aib in its sequence for protection from circulating DPP-IV peptidases, (Table 7 and FIG. 2B).

[2] = Canine study, compositions around 6.5:1 Na CDC:PG ratio in enterically coated tablets (Example 23, Table 30); format: in vivo; conditions: dogs, oral enterically coated tablet
Source text: The following materials and methods were used for quantitative measurements of GLP-1 peptide analogs in plasma (e.g., rat or dog plasma) in the Examples below. These methods used a SCIEX 6600 TripleTOF mass spectrometer coupled with a Shimadzu ultra-high performance liquid chromatography (UHPLC). The specificity of the method was ensured by the retention time, the selected mass for Single-Reaction-Monitoring (SRM) mode, and the selected fragment mass in MS/MS (MS^2) mode.
The plasma extraction procedure used the following steps: • Samples, standards, and quality controls were incubated until they reached room temperature. They were then incubated at 60° C. for 2 minutes and cooled down to room temperature, vortexed, and spun down. • 70 μL of samples, standards, or quality controls were transferred into a 1 mL 96-well plate. • In each well, 420 uL of Precipitation Solution was added. The plate was sealed and shook for 10 minutes on a plate shaker at 600 rpm. • The plate was centrifuged at 18G, 2500 RFC, 20° C. for 10 minutes. • The plate was carefully removed, and the upper clear supernatant was extracted with a 200 uL multichannel pipette into a new 96-well protein lobind plate. The supernatant was extracted twice for each well, and the supernatants were combined. • The Plate was placed in TurboVap and the extracted supernatant was dried completely with heated (65° C.) Nitrogen gas at 60 Fahrenheit (Fh). • After the plate was completely dry, the plates were covered and incubated at room temperature for at least 30 minutes until the plate returned back to ambient temperature. • 150 μL of Reconstitution solution was added to each well. The plate was covered with a pierceable place seal and shaken at 600 rpm for 10 minutes. • The samples were submitted to the LC-MS/MS on the same day of Preparation
Quantification of the data obtained using the high resolution SCIEX 6600 instrument was then performed as follows: • For the quantification, extracted ion chromatograms (XIC) using 0.2 Da m/z extraction window centered on the accurate mass of each fragment ion were generated. Accurate mass was calculated from the structure of the compound. […] Concentrations of the target analyte in unknown samples were obtained by regression analysis using linear fits of peak areas vs. analyte concentration, weighted 1/(concentration). • The quality of the assay was controlled by the quality control samples. • Either Experiment 1 or Experiment 2 could be used for the quantification of the GLP-1 peptide analogs in high resolution mode.

[3] = Second rat intraduodenal study, permeation enhancers from Caco-2 (Example 5); format: in vivo; conditions: for AUC / Cmax / Tmax / half-life: in vivo, pH 8, rat
Protocol: Solution formulations comprising GLP-1 peptide analogs were injected into rats in the duodenum segment of the small intestine. The first ID study involved the use of sodium caprate as the permeation enhancer and the SEQ ID NO:3 GLP-1 peptide analog. Absolute bioavailability (% F) is a percentage-expressed measure of systemic drug exposure after oral, or in the current example intraduodenal, administration to the systemic exposure generated with intravenous (IV) administration of drug solution. Absolute bioavailability, (% F), is calculated as a percentage of systemic, or blood, drug concentration area under curve (AUC) of the AUC of IV administration adjusted to the amounts of drug given via these routes of administration.
Following the initial rat ID study, a second rat ID administration study was performed to evaluate the influence of permeation enhancers identified from the Caco-2 model study. That is, tetradecyl maltoside, sodium chenodeoxycholate, and combination of sodium chenodeoxycholate and propyl gallate were tested for their effect on oral bioavailability of the SEQ ID NO:3 peptide (Table 6).

[4] = 4:1 ratio, 120 mg Na CDC and 30 mg PG, 3 mg MEDI7219
[5] = 14:1 ratio, 140 mg Na CDC and 10 mg PG, 3 mg MEDI7219
[6] = 29:1 ratio, 145 mg Na CDC and 5 mg PG, 3 mg MEDI7219
[7] = ID, 1 mg/kg peptide + 25 mg/kg Na CDC + 12.5 mg/kg PG, PBS pH 8.0
[8] = ID, 1 mg/kg peptide + 25 mg/kg Na CDC, PBS pH 8.0
[9] = ID, 1 mg/kg peptide + 25 mg/kg Tetradecylmaltoside, PBS pH 8.0
[10] = ID, 1 mg/kg peptide + 50 mg/kg Na CDC, PBS pH 8.0
[11] = ID, 1 mg/kg peptide + 50 mg/kg Tetradecylmaltoside, PBS pH 8.0
[12] = ID, 10 mg/kg peptide + 50 mg/kg Na CDC + 25 mg/kg PG, PBS pH 8.0
[13] = ID, 10 mg/kg peptide + 50 mg/kg Na CDC, PBS pH 8.0
[14] = ID, 10 mg/kg peptide + 50 mg/kg Tetradecylmaltoside, PBS pH 8.0
[15] = 1 mg/kg, ID, 1 mg/kg peptide, no permeation enhancer, PBS pH 8.0
[16] = iv, 0.01 mg/kg, 0.01 mg/kg peptide in PBS pH 8.0
[17] = ID, 1 mg/kg peptide + 50 mg/kg Na CDC + 25 mg/kg PG, PBS pH 8.0

EC50 (GLP-1 receptor): ~116 pM
half-life [1]: 10.4 h
AUC ([1]; iv, 0.01 mg/kg): 1590 ng·h/mL
Cmax ([1]; iv, 0.01 mg/kg): 264 ng/mL
F ([1]; iv, 0.01 mg/kg): 100%
half-life ([1]; iv, 0.01 mg/kg): 17 h
F [2, 4]: ~5.7%
PK variability (CV) at C max [2, 4]: 52.8%
F [2, 5]: ~4.6%
PK variability at C max [2, 5]: 84.4%
F [2, 6]: ~3.8%
PK variability at C max [2, 6]: 135.3%
F ([2]; No PG formulation, 150 mg Na CDC): ~0.6%
SMILES: CCCCCCCCCCCC(=O)N[C@@H](CCC(=O)NCCOCCOCC(=O)NCCOCCOCC(=O)NCCCC[C@H](NC(=O)[C@H](C)NC(=O)[C@@H](NC(=O)[C@](C)(Cc1ccccc1)NC(=O)[C@H](CCC(=O)O)NC(=O)[C@](C)(CCCCN)NC(=O)[C@H](C)NC(=O)[C@H](C)NC(=O)[C@H](CCC(=O)O)NC(=O)CNC(=O)[C@H](CCC(=O)O)NC(=O)[C@H](CC(C)C)NC(=O)[C@H](CCCCNC(=O)COCCOCCNC(=O)COCCOCCNC(=O)CC[C@H](NC(=O)CCCCCCCCCCC)C(=O)O)NC(=O)[C@H](CO)NC(=O)[C@](C)(CO)NC(=O)[C@@H](NC(=O)[C@H](CC(=O)O)NC(=O)[C@H](CO)NC(=O)[C@@H](NC(=O)[C@](C)(Cc1ccccc1)NC(=O)[C@H](CO)NC(=O)CNC(=O)[C@H](CCC(=O)O)NC(=O)C(C)(C)NC(=O)[C@@H](N)Cc1c[nH]cn1)[C@@H](C)O)C(C)C)[C@@H](C)CC)C(=O)N[C@H](C(=O)N[C@H](C(=O)N[C@@H](CCC(=O)O)C(=O)NCC(=O)NCC(N)=O)C(C)C)C(C)C)C(=O)O [MEDI7219, Free-H-[AIB]-EGS-[αMePhe]-TSDV-[αMeSer]-SK[(PEG2)2-γE-Lauroyl]-LEGEAA-[αMeLys]-E-[αMePhe]-IAK[(PEG2)2-γE-Lauroyl]-VVEGG-amide] (H-H[Aib]EGS[αMeF]TSDV[αMeS]SK([AEEA-AEEA-γGlu-Lauroyl])LEGEAA[αMeK]E[αMeF]IAK([AEEA-AEEA-γGlu-Lauroyl])VVEGG-NH2)
F [1]: significantly higher absolute bioavailability via ID route than semaglutide

F [3, 7]: 0.28%
F [3, 8]: 0.12%
F [3, 9]: 0.08%
F [3, 10]: 0.21%
F [3, 11]: 0.06%
increase of oral bioavailability ([3]; ID, 1 mg/kg peptide, 50 mg/kg sodium chenodeoxycholate and 25 mg/kg propyl gallate (to 0.39%)): ~20 fold
F [3, 12]: 0.42%
F [3, 13]: 0.28%
F [3, 14]: 0.07%
F ([3]; Intravenous, 0.01 mg/kg peptide in PBS pH 8.0): 100%
AUC [3, 15]: 19.4 ng·h/mL
Cmax [3, 15]: 3.16 ng/mL
Tmax [3, 15]: 8 h
AUC [3, 16]: 1030 ng·h/mL
Cmax [3, 16]: 96.2 ng/mL
half-life ([3]; iv, 0.01 mg/kg, Intravenous, 0.01 mg/kg peptide in PBS pH 8.0, read-out: T ½ (converted)): 2.9 h
AUC [3, 7]: 293 ng·h/mL
Cmax [3, 7]: 39 ng/mL
Tmax [3, 7]: 0.3 h
half-life ([3]; ID, 1 mg/kg peptide + 25 mg/kg Na CDC + 12.5 mg/kg PG, PBS pH 8.0, read-out: T ½ (converted)): 9.1 h
AUC [3, 8]: 121 ng·h/mL
Cmax [3, 8]: 21.3 ng/mL
Tmax [3, 8]: 0.3 h
half-life ([3]; ID, 1 mg/kg peptide + 25 mg/kg Na CDC, PBS pH 8.0, read-out: T ½ (converted)): 7.16 h
AUC [3, 9]: 87.3 ng·h/mL
Cmax [3, 9]: 5.4 ng/mL
Tmax [3, 9]: 1 h
half-life ([3]; ID, 1 mg/kg peptide + 25 mg/kg Tetradecylmaltoside, PBS pH 8.0, read-out: T ½ (converted)): 17.4 h
AUC [3, 17]: 402 ng·h/mL
Cmax [3, 17]: 58.1 ng/mL
Tmax [3, 17]: 0.5 h
half-life ([3]; ID, 1 mg/kg peptide + 50 mg/kg Na CDC + 25 mg/kg PG, PBS pH 8.0, read-out: T ½ (converted)): 9.9 h
AUC [3, 10]: 212 ng·h/mL
Cmax [3, 10]: 30.9 ng/mL
Tmax [3, 10]: 0.5 h
half-life ([3]; ID, 1 mg/kg peptide + 50 mg/kg Na CDC, PBS pH 8.0, read-out: T ½ (converted)): 9.3 h
AUC [3, 11]: 63.2 ng·h/mL
Cmax [3, 11]: 5.8 ng/mL
Tmax [3, 11]: 1 h
half-life ([3]; ID, 1 mg/kg peptide + 50 mg/kg Tetradecylmaltoside, PBS pH 8.0, read-out: T ½ (converted)): 10.3 h
AUC [3, 12]: 4330 ng·h/mL
Cmax [3, 12]: 670 ng/mL
Tmax [3, 12]: 0.5 h
half-life ([3]; ID, 10 mg/kg peptide + 50 mg/kg Na CDC + 25 mg/kg PG, PBS pH 8.0, read-out: T ½ (converted)): 11 h
AUC [3, 13]: 2920 ng·h/mL
Cmax [3, 13]: 380 ng/mL
Tmax [3, 13]: 0.5 h
half-life ([3]; ID, 10 mg/kg peptide + 50 mg/kg Na CDC, PBS pH 8.0, read-out: T ½ (converted)): 9.4 h
AUC [3, 14]: 705 ng·h/mL
Cmax [3, 14]: 51.5 ng/mL
Tmax [3, 14]: 0.5 h
half-life ([3]; ID, 10 mg/kg peptide + 50 mg/kg Tetradecylmaltoside, PBS pH 8.0, read-out: T ½ (converted)): 8.19 h
SMILES: CC[C@H](C)[C@H](NC(=O)C(C)(Cc1ccccc1)NC(=O)[C@H](CCC(=O)O)NC(=O)[C@H](CCCCNC(=O)COCCOCCNC(=O)COCCOCCNC(=O)CC[C@H](NC(=O)CCCCCCCCCCCCCCCCC(=O)O)C(=O)O)NC(=O)[C@H](C)NC(=O)[C@H](C)NC(=O)[C@H](CCC(=O)O)NC(=O)CNC(=O)[C@H](CCC(=O)O)NC(=O)[C@H](CC(C)C)NC(=O)C(C)(Cc1ccccc1)NC(=O)[C@H](CO)NC(=O)C(C)(CO)NC(=O)[C@@H](NC(=O)[C@H](CC(=O)O)NC(=O)[C@H](CO)NC(=O)[C@@H](NC(=O)C(C)(Cc1ccccc1)NC(=O)[C@H](CO)NC(=O)CNC(=O)[C@H](CCC(=O)O)NC(=O)C(C)(C)NC(=O)[C@@H](N)Cc1c[nH]cn1)[C@@H](C)O)C(C)C)C(=O)N[C@@H](C)C(=O)NC(C)(Cc1ccccc1)C(=O)N[C@H](C(=O)N[C@H](C(=O)NC(C)(CCCCN)C(=O)NCC(=O)NCC(N)=O)C(C)C)C(C)C (stereo partly drawn) [SEQ ID NO: 3, Free-H-[AIB]-EGS-[αMePhe]-TSDV-[αMeSer]-S-[αMePhe]-LEGEAAK[(PEG2)2-γE-Stearate]-E-[αMePhe]-IA-[αMePhe]-VV-[αMeLys]-GG-amide]
